Experimental data as given in patent US10030016B2 (Sunesis Pharmaceuticals, Inc., priority 2009, dated 2018).
Counter-ions that a name gives are not always drawn. Like-named read-outs stand apart in the source and are kept apart here.

Experiments:
[1] = system: phospho-akt (Thr308) in PC-3 cells; experiment: Inhibition of phospho-akt (Thr308) in PC-3 cells, MSD phospho-akt 308 ELISA kit; format: cell-based; conditions: 2 hours, no serum, read-out: EC50
How it was run: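 Phospho-Akt (Thr308) levels were measured by MSD ELISA after PC-3 cells received compound for 2 hours in serum-free medium. Controls: DMSO (high), 5 μM wortmannin (low).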

PDK1 = PDK1 (Homo sapiens (Human), UniProt O15530); experiment: PDK1 kinase assay (coupled PDK1/AKT/FAM-crosstide assay, IMAP fluorescence polarization); format: biochemical
Chain of PDK1 (O15530 51-359): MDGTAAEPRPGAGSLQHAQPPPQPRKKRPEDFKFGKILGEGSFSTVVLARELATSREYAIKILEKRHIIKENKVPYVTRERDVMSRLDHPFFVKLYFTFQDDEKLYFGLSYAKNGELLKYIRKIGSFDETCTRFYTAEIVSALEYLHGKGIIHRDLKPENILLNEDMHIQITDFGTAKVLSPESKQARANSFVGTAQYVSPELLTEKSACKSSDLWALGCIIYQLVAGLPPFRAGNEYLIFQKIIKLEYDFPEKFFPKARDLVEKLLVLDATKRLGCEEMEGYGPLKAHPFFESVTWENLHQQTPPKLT
How it was run: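 GST-tagged PDK1 (aa 51-359, 0.75 nM) was coupled to unphosphorylated GST-AKT2 140-467-PIFtide (10 nM) and 100 nM FAM-crosstide at 40 μM ATP, in Tris pH 7.2 buffer, for 30 min at 25 °C. Crosstide phosphorylation was read by IMAP fluorescence polarization (ΔmP) and fitted with a 4-parameter curve.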

[2] = Homo sapiens, inhibition of P308 Akt in PC-3 cells, MSD
[3] = inhibition of phospo-PDK1 in vitro
[4] = Homo sapiens, inhibition of P308 Akt in PC-3 cells using MSD

EC50 [1, 2] [µM] | IC50 (PDK1; [3]) [µM] | EC50 [1, 4] [µM] | IC50 (PDK1; inhibition of PDK1 in vitro) [µM] | EC50 ([1]; inhibition of P308 Akt in PC-3 cells using MSD) [µM] | Molecule
1 to 10 | 0.1 to 1 | – | – | – | C#CCNC(=O)c1cccnc1NCc1cc(OC(C)C)cc(-c2c[nH]c3ncc(C(=O)NC4CC4)cc23)c1 [Example 4.1.16, N-cyclopropyl-3-[3-(propan-2-yloxy)-5-({[3-(prop-2-yn-1-ylcarbamoyl)pyridin-2-yl]amino}methyl)phenyl]-1H-pyrrolo[2,3-b] pyridine-5-carboxamide]
1 to 10 | < 0.1 | – | – | – | O=C(NCc1ccc(F)c(F)c1)c1cccnc1NCc1cc(-c2c[nH]c3ncccc23)ccn1 [Example 18.1, 2-((4-(1H-pyrrolo[2,3-b]pyridin-3-yl)pyridin-2-ylmethyl)amino)-N-(3,4-difluorobenzyl)nicotinamide]
1 to 10 | 1 to 5 | – | – | – | CCCc1cnc(NCc2ccc(-c3ccc4ncnc(N)c4c3)s2)c(C(=O)NCc2ccc(F)c(F)c2)n1 [Ex. 10.7, 3-({[5-(4-aminoquinazolin-6-yl)thiophen-2-yl]methyl}amino)-N-(3,4-difluorobenzyl)-6-propylpyrazine-2-carboxamide]
< 1 | < 0.1 | – | – | – | C[C@@H](c1ccc(F)c(F)c1)n1cnc2ccnc(NCc3ccc(-c4ccc5ncnc(N)c5c4)s3)c2c1=O [Example 7.10, 5-({[5-(4-aminoquinazolin-6-yl)thiophen-2-yl]methyl}amino)-3-[(1S)-1-(3,4-difluorophenyl)ethyl] pyrido[4,3-d]pyrimidin-4(3H)-one]
– | – | < 1 | < 0.1 | – | Nc1n[nH]c2ncc(-c3ccc(CNc4ncc(C(F)(F)F)cc4C(=O)Nc4ccc(F)cc4F)cc3)cc12 [Example 291, 2-(4-(3-amino-1H-pyrazolo [3,4-b]pyridin-5-yl)benzylamino)-N-(2,4-difluorophenyl)-5-(trifluoromethyl)nicotinamide]
– | – | < 1 | < 0.1 | – | Cn1cnc2cnc3ccc(-c4ccc(CNc5ncccc5C(=O)NCc5cncc(F)c5)s4)cc3c21 [Example 354, N-((5-fluoropyridin-3-yl)methyl)-2-((5-(1-methyl-1H-imidazo[4,5-c]quinolin-8-yl)thiophen-2-ylmethyl)amino)nicotinamide]
– | – | < 1 | < 0.1 | – | C[C@H](NC(=O)c1nc(C#N)cnc1NCc1ccc(-c2cnc(N)c(CCCO)n2)cc1)c1ccc(F)c(F)c1 [Example 95, 3-{4-[5-Amino-6-(3-hydroxy-propyl)-pyrazin-2-yl]-benzyl-amino}-6-cyano-pyrazine-2-carboxylic acid [(S)-1-(3,4-difluoro-phenyl)-ethyl]-amide]
– | – | < 1 | < 0.1 | – | C[C@H](NC(=O)c1cc(C#N)cnc1NCc1ccc(-c2cnc(N)c(O[C@@H]3CCNC3)n2)cc1)c1ccc(F)cc1 [Example 160, 2-{4-[5-Amino-6-((R)-pyrrolidin-3-yloxy)-pyrazin-2-yl]-benzylamino}-5-cyano-N-[(S)-1-(4-fluoro-phenyl)-ethyl]-nicotinamide]
– | – | < 1 | < 0.1 | – | Nc1n[nH]c2ncc(-c3ccc(CNc4ncc(C(F)(F)F)cc4C(=O)NCc4ccc(F)c(Cl)c4)cc3)cc12 [Example 286]
– | – | < 1 | < 0.1 | – | CNCCCc1nc(-c2ccc(CNc3ncc(C#N)cc3C(=O)N[C@@H](C)c3ccc(F)cc3)cc2)cnc1N [Example 93, 2-{4-[5-Amino-6-(3-methylamino-propyl)-pyrazin-2-yl]-benzyl-amino}-5-cyano-N-[(S)-1-(4-fluoro-phenyl)-ethyl]-nicotinamide]
1 to 10 | < 0.1 | – | – | – | C=C(C)c1cnc(NCc2ccc(-c3ccc4ncnc(N)c4c3)s2)c(C(=O)NCc2ccc(F)c(F)c2)n1 [Ex. 10.5, 3-({[5-(4-aminoquinazolin-6-yl)thiophen-2-yl]methyl}amino)-N-(3,4-difluorobenzyl)-6-(prop-1-en-2-yl)pyrazine-2-carboxamide]
– | – | < 1 | < 0.1 | – | Cc1cc(F)ccc1NC(=O)c1cc(C(F)(F)F)cnc1NCc1ccc(-c2cnc3[nH]nc(N)c3c2)cc1 [Example 295, 2-(4-(3-amino-1H-pyrazolo [3,4-b]pyridin-5-yl)benzylamino)-N-(4-fluoro-2-methylphenyl)-5-(trifluoromethyl)nicotinamide]
– | – | > 10 | > 5 | – | CC(Nc1ncc(C#N)nc1C(=O)N[C@@H](C)c1ccc(F)c(F)c1)c1ccc(-c2cnc3[nH]nc(N)c3c2)cc1 (stereo in doubt) [Example 350, 3-((R)-1-(4-(3-amino-1H-pyrazolo[3,4-b]pyridin-5-yl)phenyl)ethylamino)-6-cyano-N-((S)-1-(3,4-difluorophenyl)ethyl) pyrazine-2-carboxamide]
1 to 10 | 0.1 to 1 | – | – | – | O=C(NCc1ccc(F)c(F)c1)c1cccnc1NCc1cnc(-c2c[nH]c3ncccc23)s1 [Ex. 6.10, N-(3,4-difluorobenzyl)-2-({[2-(1H-pyrrolo[2,3-b]pyridin-3-yl)-1,3-thiazol-5-yl]methyl}amino) pyridine-3-carboxamide]
> 10 | > 5 | – | – | – | C[C@@H](c1ccc(F)cc1)n1cnc2ccnc(NCc3ccc(-c4cc5c(N)ncnc5cn4)s3)c2c1=O [Example 7.12, 5-({[5-(4-aminopyrido [3,4-d]pyrimidin-6-yl)thiophen-2-yl]methyl}amino)-3-[(1S)-1-(4-fluorophenyl)ethyl] pyrido[4,3-d]pyrimidin-4(3H)-one]
> 10 | 0.1 to 1 | – | – | – | N#Cc1cnc(NC/C=C/c2ccc3c(c2)NC(=O)/C3=C\c2cnc[nH]2)c(C(=O)O)c1 [Example 15.16, 2-((E)-3-((Z)-3-((1H-imidazol-5-yl)methylene)-2-oxoindolin-6-yl)allylamino)-5-cyanonicotinic acid]
– | – | – | < 0.1 | < 1 | (S)-2-(4-(4-amino-7-methyl- 7H-pyrrolo[2,3-d]pyrimidin- 5-yl)benzylamino)-fluorophenyl) ethyl)nicotinamide [Example 97]
1 to 10 | 1 to 5 | – | – | – | Nc1ncnc2ccc(-c3ccc(CNc4ncccc4C(=O)NCc4cncnc4)s3)cc12 [Example 3.57, 2-({[5-(4-aminoquinazolin-6-yl)thiophen-2-yl]methyl}amino)-N-(pyrimidin-5-ylmethyl) pyridine-3-carboxamide (TFA salt)]
– | – | < 1 | < 0.1 | – | Nc1n[nH]c2ncc(-c3ccc(CNc4ncc(C(F)(F)F)cc4C(=O)Nc4cccnc4)cc3)cc12 [Example 289, 2-(4-(3-amino-1H-pyrazolo [3,4-b]pyridin-5-yl)benzylamino)-N-(pyridin-3-yl)-5-(trifluoromethyl) nicotinamide]
– | – | 1 to 10 | 0.1 to 1 | – | C[C@H](NC(=O)c1cccnc1NCc1ccc(-c2cnc(N)cn2)cc1)c1ccc(F)c(F)c1 [Example 380, (S)-2-(4-(5-aminopyrazin-2-yl)benzylamino)-N-(1-(3,4-difluorophenyl)ethyl) nicotinamide]
1 to 10 | < 0.1 | – | – | – | Nc1ncnc2ccc(-c3ccc(CNc4ncc(C(=O)N5CCOCC5)cc4C(=O)NCc4ccc(F)c(F)c4)s3)cc12 [Example 7.24.6, 2-({[5-(4-aminoquinazolin-6-yl)thiophen-2-yl]methyl}amino)-N^3-(3,4-difluorobenzyl)-5-(morpholin-4-ylcarbonyl)pyridine-3-carboxamide]
1 to 10 | > 5 | – | – | – | COc1ccc([C@H](COc2ccc([N+](=O)[O-])c(N)c2)Nc2ncccc2C(=O)N[C@@H](C)c2ccc(F)c(F)c2)cc1 [Example 16.5, 2-((R)-2-(3-amino-4-nitrophenoxy)-1-(4-methoxyphenyl)ethylamino)-N-((S)-1-(3,4-difluorophenyl)ethyl)nicotinamide]
> 10 | > 5 | – | – | – | CC(C)Oc1cc(CNc2ncccc2C(=O)NCC(F)(F)F)cc(-c2c[nH]c3ncc(C(=O)NC4CC4)cc23)c1 [Example 4.1.5, N-cyclopropyl-3-{3-(propan-2-yloxy)-5-[({3-[(2,2,2-trifluoroethyl)carbamoyl]pyridin-2-yl}amino)methyl]phenyl}-1H-pyrrolo[2,3-b] pyridine-5-carboxamide]
> 10 | > 5 | – | – | – | CNC(=O)c1ncnc2ccc(-c3ccc(CNc4ncccc4C(=O)N[C@@H](C)c4ccc(F)c(F)c4)s3)cc12 [Example 4.25, (S)-6-(5-((3-(1-(3,4-difluorophenyl)ethyl-carbamoyl)pyridin-2-ylamino)methyl)thiophen-2-yl)-N-methylquinazoline-4-carboxamide]
< 1 | < 0.1 | – | – | – | Cc1nc[nH]c1/C=C1\C(=O)Nc2cc(/C=C/CNc3ncccc3C(=O)NCc3ccc(F)c(F)c3)ccc21 [Example 15.7, N-(3,4-Difluoro-benzyl)-2-((E)-3-{3-[1-(5-methyl-3H-imidazol-4-yl)-meth-(Z)-ylidene]-2-oxo-2,3-dihydro-1H-indol-6-yl}-allylamino)-nicotinamide]
1 to 10 | 0.1 to 1 | – | – | – | Nc1ncnc2ccc(-c3ccc(CNc4ncccc4C(=O)Nc4cccc(F)c4)s3)cc12 [Example 3.46, 2-({[5-(4-aminoquinazolin-6-yl)thiophen-2-yl]methyl}amino)-N-(3-fluorophenyl)pyridine-3-carboxamide (TFA salt)]
1 to 10 | < 0.1 | – | – | – | Nc1ncnc2ccc(-c3csc(CNc4ncccc4C(=O)NCc4ccc(F)c(F)c4)c3)cc12 [Ex. 6.14, 2-({[4-(4-aminoquinazolin-6-yl)thiophen-2-yl]methyl}amino)-N-(3,4-difluoro-benzyl) pyridine-3-carboxamide]
